We go through eleven molecules from ChEMBL document CHEMBL1909046, “DrugMatrix in vitro pharmacology data”.

Assay [1] in a line: DRUGMATRIX: Tumor Necrosis Factor (TNF), Non-Selective radioligand binding (ligand: [125I] TNF-alpha). Format: cell membranes, Membrane. As to conditions: u-937; Not Active = under 50% inhibition at 10 µM.
The target in assay [2] is Histamine H2 receptor (Homo sapiens, UniProt P25021). In kind it is cell membranes, CHO-K1, Membrane. Further: in other assays of this panel Not Active means under 50% inhibition at 10 µM.
Assay [3] has as its target T1, Endothelin-1 receptor (Homo sapiens, UniProt P25101). Further: in other assays of this panel Not Active means under 50% inhibition at 10 µM.
T1 sequence (P25101 whole entry): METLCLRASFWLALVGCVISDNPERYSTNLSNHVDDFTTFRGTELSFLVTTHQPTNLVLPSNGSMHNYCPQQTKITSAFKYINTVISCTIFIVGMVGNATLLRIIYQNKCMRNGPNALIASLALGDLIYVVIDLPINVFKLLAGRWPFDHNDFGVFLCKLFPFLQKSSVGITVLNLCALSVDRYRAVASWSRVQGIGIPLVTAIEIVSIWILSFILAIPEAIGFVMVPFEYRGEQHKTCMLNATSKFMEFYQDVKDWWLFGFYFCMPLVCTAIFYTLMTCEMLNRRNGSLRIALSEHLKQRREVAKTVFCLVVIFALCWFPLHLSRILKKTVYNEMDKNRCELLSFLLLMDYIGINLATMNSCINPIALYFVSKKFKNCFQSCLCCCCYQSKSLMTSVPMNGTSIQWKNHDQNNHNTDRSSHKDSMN
Format: cell membranes, Membrane. As to conditions: cho-k1.

For assay [4], the target named is C-C chemokine receptor type 2 (Homo sapiens, UniProt P41597). Format: cell membranes, CHO-K1, Membrane. Further: in other assays of this panel Not Active means under 50% inhibition at 10 µM.
Assay [5] deals with T2, Alpha-2C adrenergic receptor (Homo sapiens, UniProt P18825).
T2 sequence (P18825 whole entry): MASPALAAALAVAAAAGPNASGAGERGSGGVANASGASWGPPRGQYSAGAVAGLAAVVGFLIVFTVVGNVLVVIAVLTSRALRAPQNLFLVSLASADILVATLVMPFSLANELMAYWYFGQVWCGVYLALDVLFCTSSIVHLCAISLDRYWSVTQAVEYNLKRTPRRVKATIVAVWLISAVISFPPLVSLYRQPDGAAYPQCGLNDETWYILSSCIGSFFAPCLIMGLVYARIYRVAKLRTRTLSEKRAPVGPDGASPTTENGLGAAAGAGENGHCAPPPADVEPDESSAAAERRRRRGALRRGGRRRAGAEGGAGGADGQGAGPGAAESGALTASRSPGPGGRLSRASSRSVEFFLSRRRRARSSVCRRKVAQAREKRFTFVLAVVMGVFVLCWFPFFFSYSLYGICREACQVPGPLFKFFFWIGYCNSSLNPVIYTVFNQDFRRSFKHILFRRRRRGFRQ
The assay can be described thus: DRUGMATRIX: Adrenergic Alpha-2C radioligand binding (ligand: [3H] MK-912). Format: cell membranes, Sf9, Membrane.

For assay [6], the target named is Protein kinase C alpha type (Homo sapiens, UniProt P17252). In kind it is cell-based. As to conditions: sf9.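 Further: inhibition of PKCalpha kinase activity measured in an enzyme assay with histone as the phosphorylation substrate; in other assays of this panel Not Active means under 50% inhibition at 10 µM.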
The target in assay [7] is T3, Receptor-type tyrosine-protein phosphatase C (Homo sapiens, UniProt P08575).
T3 sequence (P08575 whole entry): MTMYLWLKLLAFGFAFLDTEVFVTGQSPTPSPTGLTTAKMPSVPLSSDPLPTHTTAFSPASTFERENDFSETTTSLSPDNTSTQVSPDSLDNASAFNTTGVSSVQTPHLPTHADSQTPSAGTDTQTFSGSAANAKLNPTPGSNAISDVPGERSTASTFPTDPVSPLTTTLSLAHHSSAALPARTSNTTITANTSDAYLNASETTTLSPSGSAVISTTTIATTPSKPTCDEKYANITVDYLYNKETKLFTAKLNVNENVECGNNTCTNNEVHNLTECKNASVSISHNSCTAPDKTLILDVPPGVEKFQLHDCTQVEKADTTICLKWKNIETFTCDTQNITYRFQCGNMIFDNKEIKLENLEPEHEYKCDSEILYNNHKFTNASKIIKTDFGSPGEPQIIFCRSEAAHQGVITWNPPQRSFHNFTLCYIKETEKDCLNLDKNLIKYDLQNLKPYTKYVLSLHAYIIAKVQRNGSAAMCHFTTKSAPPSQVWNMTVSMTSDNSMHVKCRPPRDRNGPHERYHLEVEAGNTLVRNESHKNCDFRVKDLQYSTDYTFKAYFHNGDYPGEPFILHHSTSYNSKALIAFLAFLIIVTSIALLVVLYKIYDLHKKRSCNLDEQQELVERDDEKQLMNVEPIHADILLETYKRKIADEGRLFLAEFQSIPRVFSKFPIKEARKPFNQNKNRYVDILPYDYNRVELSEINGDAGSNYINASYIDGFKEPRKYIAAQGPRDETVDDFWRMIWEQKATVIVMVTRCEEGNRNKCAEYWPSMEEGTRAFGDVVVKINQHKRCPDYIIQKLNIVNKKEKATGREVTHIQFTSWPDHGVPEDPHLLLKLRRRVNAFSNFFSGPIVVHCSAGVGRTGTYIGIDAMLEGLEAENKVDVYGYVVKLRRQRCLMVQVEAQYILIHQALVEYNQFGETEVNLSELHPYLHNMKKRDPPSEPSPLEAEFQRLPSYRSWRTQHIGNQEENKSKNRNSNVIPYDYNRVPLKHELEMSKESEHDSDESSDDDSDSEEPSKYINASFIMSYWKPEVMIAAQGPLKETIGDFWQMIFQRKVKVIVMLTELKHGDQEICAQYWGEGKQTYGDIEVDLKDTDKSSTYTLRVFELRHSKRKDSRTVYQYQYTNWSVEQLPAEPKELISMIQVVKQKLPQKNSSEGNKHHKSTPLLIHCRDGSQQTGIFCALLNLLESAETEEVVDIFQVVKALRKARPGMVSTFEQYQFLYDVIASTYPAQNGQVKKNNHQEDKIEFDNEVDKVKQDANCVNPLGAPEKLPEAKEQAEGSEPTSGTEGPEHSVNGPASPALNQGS
Also on record: species or system Escherichia coli.

Sequence of C-C chemokine receptor type 2 (P41597 whole entry): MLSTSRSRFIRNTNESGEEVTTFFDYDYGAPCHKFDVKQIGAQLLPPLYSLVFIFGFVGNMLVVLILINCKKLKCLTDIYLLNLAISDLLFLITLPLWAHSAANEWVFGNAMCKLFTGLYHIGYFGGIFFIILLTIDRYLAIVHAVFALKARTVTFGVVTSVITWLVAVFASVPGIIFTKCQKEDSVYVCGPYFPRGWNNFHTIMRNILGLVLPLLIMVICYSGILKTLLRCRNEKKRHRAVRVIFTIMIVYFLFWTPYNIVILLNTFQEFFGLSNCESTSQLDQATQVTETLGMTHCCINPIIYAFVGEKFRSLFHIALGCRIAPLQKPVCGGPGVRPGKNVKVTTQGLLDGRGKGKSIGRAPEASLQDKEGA
Sequence of Histamine H2 receptor (P25021 whole entry): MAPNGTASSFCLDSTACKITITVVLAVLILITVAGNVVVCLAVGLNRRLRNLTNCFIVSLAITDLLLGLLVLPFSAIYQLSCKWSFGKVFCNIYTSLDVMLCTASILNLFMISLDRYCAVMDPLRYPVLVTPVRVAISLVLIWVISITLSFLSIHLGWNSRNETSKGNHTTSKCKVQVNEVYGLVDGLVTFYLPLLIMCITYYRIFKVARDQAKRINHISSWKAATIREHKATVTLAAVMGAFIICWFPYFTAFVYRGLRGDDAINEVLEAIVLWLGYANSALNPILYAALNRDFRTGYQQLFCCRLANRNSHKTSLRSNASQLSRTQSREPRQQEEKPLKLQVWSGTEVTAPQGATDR

For the molecule `CC[C@H](C)[C@@H](CO[C@@H](Cc1ccccc1)C(=O)N[C@@H](CCS(C)(=O)=O)C(=O)OC(C)C)NC[C@@H](N)CS`, the IC50 – broadly, the concentration at which inhibition is half-maximal – in assay [1] is “Not Active”; in assay [2] (cho-k1), “Not Active”; in assay [3], “Not Active”; in assay [4] (cho-k1), “Not Active”; in assay [5] (read-out: IC50) it was 3140 nM; in assay [6], “Not Active”. In assay [7], the concentration for half-maximal inhibition (IC50) entry is “Not Active”. In addition, the Ki – broadly, a dissociation constant, usually derived from enzyme kinetics or from competition with a known ligand – in assay [1] is “Not Active”; in assay [5] (read-out: Ki) it was 456 nM.

Consider `Nc1nc(N)c2nc(-c3ccccc3)c(N)nc2n1`, for which the concentration for half-maximal inhibition (IC50) entry in assay [1], in assay [2] (cho-k1), in assay [3], in assay [4] (cho-k1), in assay [5] (sf9) and in assay [6] was “Not Active” in each case. In addition, the IC50 result in assay [7] is given as “Not Active”. In addition, in assay [1], the Ki result is listed as “Not Active”.

On to `CCN(CC)C(=S)SSC(=S)N(CC)CC`, for which the half-inhibitory concentration (IC50) entry in assay [1] was “Not Active”; in assay [2] (cho-k1) it was “Not Active”; in assay [3], “Not Active”; in assay [4] (read-out: IC50), 2470 nM; in assay [5] (sf9), “Not Active”; in assay [6], “Not Active”. For the same molecule, in assay [7], the IC50 result was “Not Active”. For the same molecule, the values for the Ki entry in assay [1] and in assay [4] (read-out: Ki) were “Not Active” and 954 nM, respectively.

With `CN(C)CCC=C1c2ccccc2COc2ccccc21` [DOXEPIN], the IC50 entry in assay [3], in assay [4] (cho-k1), in assay [6] and in assay [7] was “Not Active” each time.

For the molecule `O=C(c1ccccc1)c1ccc2n1CCC2C(=O)O` (stereo unspecified) [KETOROLAC], the IC50 entry in assay [1], in assay [2] (cho-k1), in assay [3], in assay [4] (cho-k1), in assay [5] (sf9) and in assay [6] was “Not Active” each time. The IC50 result in assay [7] is listed as “Not Active”. For the same molecule, the Ki result in assay [1] is “Not Active”.

`CCOC(=O)C1=C(C)NC(C)=C(C(=O)OCC)C1c1ccccc1/C=C/C(=O)OC(C)(C)C` [LACIDIPINE]: the IC50 result in assay [1], in assay [2] (cho-k1), in assay [3], in assay [4] (cho-k1), in assay [5] (sf9) and in assay [6] was “Not Active” throughout. Moreover, the IC50 entry in assay [7] is reported as “Not Active”. Moreover, the Ki result in assay [1] was “Not Active”.

Take `CC(O)C(=O)O` (stereo unspecified) [LACTIC ACID]: the IC50 entry in assay [1], in assay [2] (cho-k1), in assay [3], in assay [4] (cho-k1), in assay [5] (sf9) and in assay [6] was “Not Active” throughout. Also, the IC50 entry in assay [7] is given as “Not Active”. For the same molecule, in assay [1], the Ki entry is on record as “Not Active”.

On to `CC(C)(C)NC[C@H](O)COc1cccc2c1CCCC2=O` [LEVOBUNOLOL], for which the 50% inhibitory concentration (IC50) entry in assay [1], in assay [2] (cho-k1), in assay [3], in assay [4] (cho-k1), in assay [5] (sf9) and in assay [6] was “Not Active” each time. The IC50 result in assay [7] is on record as “Not Active”. In addition, the inhibitory constant (Ki) result in assay [1] is on record as “Not Active”.

For `CO[C@@H]1[C@@H](OC)[C@H](C)[C@@](O)(CC(=O)O)O[C@H]1[C@H](C)[C@H]1O[C@@]2(CC[C@@](C)([C@H]3CC[C@@](C)([C@@H]4O[C@@H]([C@H]5O[C@](C)(O)[C@H](C)C[C@@H]5C)C[C@@H]4O[C@@H]4C[C@H](OC)[C@@H](OC)[C@H](C)O4)O3)O2)C[C@H](O)[C@H]1C.N` [MADURAMICIN], the IC50 result in assay [1], in assay [2] (cho-k1), in assay [3], in assay [4] (cho-k1), in assay [5] (sf9) and in assay [6] was “Not Active” each time. In assay [7], the half-maximal inhibitory concentration (IC50) entry was “Not Active”. The inhibitory constant (Ki) result in assay [1] is “Not Active”.

Turning to `CNCCCC12CCC(c3ccccc31)c1ccccc12` [MAPROTILINE], the half-inhibitory concentration (IC50) was 400 nM in assay [2] (read-out: IC50); “Not Active” in assay [3]; “Not Active” in assay [4] (cho-k1); “Not Active” in assay [6]; “Not Active” in assay [7]. Also, the Ki in assay [2] (read-out: Ki) was found to be 393 nM.

For `Cc1cc2c(s1)Nc1ccccc1N=C2N1CCN(C)CC1` [OLANZAPINE], the half-inhibitory concentration (IC50) entry in assay [2] (cho-k1), in assay [3], in assay [4] (cho-k1), in assay [6] and in assay [7] was “Not Active” each time.
